Source: patent US20250129047A1, “ISOQUINOLINE DERIVATIVES AS MUTANT EGFR MODULATORS AND USES THEREOF” (NEWAVE PHARMACEUTICAL INC., priority 2021, published 2025)

Tests used:
Settings in all cases: apparent IC50; 1.0 mM ATP or ATP Km; FL-Peptide 22 substrate; 25° C.
EGFR L858R = molecular target: T1, EGFR L858R (Homo sapiens, UniProt P00533, L858R); assay: Biochemical EGFR inhibition assay (Caliper mobility shift), EGFR L858R
T1 construct: purchased SignalChem E10-122BG
Description: (§1) Inhibitory effects of the compounds of the disclosure were measured in biochemical assays that measure the phosphorylation activity of EGFR enzyme phosphorylates 2.5 micromolar 5-FAM-EEPLYWSFPAKKK-CONFF peptide substrate (FL-Peptide 22, PerkinElmer, 760366) in the presence of adenosine-5′-triphosphate (ATP) and varying concentrations of the test compound in 100 mM 2-[4-(2-hydroxyethyl)piperazin-1-yl]ethanesulfonic acid (HEPES), pH 7.5, 10 mM MgCE. 0.015% Brij-35, 1 mM dithiothreitol (DTT), 1.0% dimehylsulfoxide (DMSO). Assays were performed at 1.0 mM ATP or at ATP Km of the EGFR enzymes. Reactions proceeded until between 10% to 20% total peptides were phosphorylated at room temperature (25° C.) and were terminated with 35 mM 2,2′,2″,2″-(ethane-1,2-diyldinitrilo)tetraacetic acid (EDTA). Product was detected using the Caliper mobility shift detection method where the phosphorylated peptide (product) and substrate were electrophoretically separated and measured. Percent activity was plotted against log concentration of compound and points to generate an apparent IC50. […]

[1] = molecular target: T2, EGFR (d746-750) T790M C797S (Homo sapiens, UniProt P00533, C797S/DEL746-750/T790M); assay: Biochemical EGFR inhibition assay (Caliper mobility shift), EGFR d746-750 T790M C797S
T2 construct: purchased SignalChem E10-122UG
Description: as §1

EGFR L858R T790M = EGFR L858R T790M (Homo sapiens, UniProt P00533, L858R/T790M); assay: Biochemical EGFR inhibition assay (Caliper mobility shift), EGFR L858R T790M
Description: as §1

EGFR d746-750 T790M = EGFR d746-750 T790M (Homo sapiens, UniProt P00533, DEL746-750/T790M); assay: Biochemical EGFR inhibition assay (Caliper mobility shift), EGFR d746-750 T790M
Description: as §1

EGFR (L858R T790M C797S) = molecular target: T3, EGFR (L858R T790M C797S) (Homo sapiens, UniProt P00533, C797S/L858R/T790M); assay: Biochemical EGFR inhibition assay (Caliper mobility shift), EGFR L858R T790M C797S
T3 construct: purchased SignalChem E10-122VG
Description: as §1

T2 sequence (P00533 with tags, fused parts or gaps DEL746-750/T790M/C797S limits assumed): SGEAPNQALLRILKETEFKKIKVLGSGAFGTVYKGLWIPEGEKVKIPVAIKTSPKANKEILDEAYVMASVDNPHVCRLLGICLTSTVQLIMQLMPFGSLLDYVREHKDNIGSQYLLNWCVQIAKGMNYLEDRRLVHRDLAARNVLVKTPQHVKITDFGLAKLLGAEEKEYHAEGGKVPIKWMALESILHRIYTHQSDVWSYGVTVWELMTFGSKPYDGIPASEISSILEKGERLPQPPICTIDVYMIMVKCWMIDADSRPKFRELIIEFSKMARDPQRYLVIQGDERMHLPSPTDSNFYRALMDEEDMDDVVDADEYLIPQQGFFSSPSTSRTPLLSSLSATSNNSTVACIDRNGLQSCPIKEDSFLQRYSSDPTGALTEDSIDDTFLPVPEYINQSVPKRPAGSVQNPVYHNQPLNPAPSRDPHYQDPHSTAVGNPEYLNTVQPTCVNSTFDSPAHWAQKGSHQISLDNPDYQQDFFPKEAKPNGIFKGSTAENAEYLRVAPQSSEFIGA
T1 sequence (P00533 25-1210 L858R): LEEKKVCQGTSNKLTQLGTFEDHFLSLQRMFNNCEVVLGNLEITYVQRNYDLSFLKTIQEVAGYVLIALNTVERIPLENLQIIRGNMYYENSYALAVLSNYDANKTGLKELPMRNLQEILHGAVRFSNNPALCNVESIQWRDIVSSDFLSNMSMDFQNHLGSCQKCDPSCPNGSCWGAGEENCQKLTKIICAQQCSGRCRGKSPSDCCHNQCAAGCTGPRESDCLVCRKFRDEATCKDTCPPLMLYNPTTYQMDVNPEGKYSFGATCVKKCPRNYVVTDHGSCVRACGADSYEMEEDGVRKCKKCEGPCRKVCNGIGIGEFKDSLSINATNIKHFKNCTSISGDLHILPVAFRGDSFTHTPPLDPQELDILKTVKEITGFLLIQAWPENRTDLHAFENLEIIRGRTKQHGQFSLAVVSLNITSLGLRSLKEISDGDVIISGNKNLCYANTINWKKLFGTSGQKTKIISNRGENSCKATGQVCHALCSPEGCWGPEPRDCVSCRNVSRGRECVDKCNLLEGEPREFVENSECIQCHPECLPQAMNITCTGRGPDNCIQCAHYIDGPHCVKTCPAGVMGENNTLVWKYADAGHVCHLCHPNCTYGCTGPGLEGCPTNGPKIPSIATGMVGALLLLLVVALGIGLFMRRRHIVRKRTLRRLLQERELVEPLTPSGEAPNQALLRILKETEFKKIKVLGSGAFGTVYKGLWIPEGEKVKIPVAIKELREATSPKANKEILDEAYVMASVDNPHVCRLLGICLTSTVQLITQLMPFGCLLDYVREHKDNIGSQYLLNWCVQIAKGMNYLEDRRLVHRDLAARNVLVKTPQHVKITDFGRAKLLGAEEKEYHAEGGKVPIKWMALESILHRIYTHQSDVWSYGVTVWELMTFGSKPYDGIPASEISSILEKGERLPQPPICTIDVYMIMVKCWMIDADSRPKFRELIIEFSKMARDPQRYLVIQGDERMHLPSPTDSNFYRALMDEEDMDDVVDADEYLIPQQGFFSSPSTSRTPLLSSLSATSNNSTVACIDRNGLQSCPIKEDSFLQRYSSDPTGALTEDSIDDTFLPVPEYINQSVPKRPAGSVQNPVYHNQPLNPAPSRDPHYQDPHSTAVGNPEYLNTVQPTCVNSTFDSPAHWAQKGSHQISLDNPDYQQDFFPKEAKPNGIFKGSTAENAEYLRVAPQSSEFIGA
T3 sequence (P00533 25-1210 T790M/C797S/L858R): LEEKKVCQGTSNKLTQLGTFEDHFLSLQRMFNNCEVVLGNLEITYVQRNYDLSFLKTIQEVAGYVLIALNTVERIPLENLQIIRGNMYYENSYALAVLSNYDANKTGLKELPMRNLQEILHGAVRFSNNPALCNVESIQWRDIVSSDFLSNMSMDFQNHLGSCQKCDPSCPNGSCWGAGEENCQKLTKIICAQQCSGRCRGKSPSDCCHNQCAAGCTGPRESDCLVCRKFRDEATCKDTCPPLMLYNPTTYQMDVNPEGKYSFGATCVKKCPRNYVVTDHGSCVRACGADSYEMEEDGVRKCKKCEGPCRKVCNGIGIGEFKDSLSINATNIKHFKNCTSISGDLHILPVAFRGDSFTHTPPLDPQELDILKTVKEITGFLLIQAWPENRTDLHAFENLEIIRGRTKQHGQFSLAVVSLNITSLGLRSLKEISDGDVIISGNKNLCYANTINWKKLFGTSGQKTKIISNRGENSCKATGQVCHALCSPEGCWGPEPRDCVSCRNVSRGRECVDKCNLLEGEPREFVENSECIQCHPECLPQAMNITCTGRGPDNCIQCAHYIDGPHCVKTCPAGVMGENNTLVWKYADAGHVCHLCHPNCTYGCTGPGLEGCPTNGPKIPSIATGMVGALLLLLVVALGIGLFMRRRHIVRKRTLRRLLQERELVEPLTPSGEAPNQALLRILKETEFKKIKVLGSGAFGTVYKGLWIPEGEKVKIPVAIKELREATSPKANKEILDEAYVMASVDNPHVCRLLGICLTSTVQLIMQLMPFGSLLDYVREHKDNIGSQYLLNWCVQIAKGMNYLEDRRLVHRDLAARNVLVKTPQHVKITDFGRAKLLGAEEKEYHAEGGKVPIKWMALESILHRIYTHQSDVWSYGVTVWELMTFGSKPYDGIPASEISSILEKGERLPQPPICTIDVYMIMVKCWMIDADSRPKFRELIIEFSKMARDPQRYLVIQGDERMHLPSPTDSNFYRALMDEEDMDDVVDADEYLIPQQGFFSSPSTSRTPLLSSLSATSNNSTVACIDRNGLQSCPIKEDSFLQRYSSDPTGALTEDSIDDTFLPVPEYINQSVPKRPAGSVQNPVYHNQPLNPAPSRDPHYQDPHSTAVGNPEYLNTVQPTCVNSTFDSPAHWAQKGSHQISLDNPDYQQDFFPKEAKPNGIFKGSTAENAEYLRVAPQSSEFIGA
Chain of EGFR d746-750 T790M (P00533 with tags, fused parts or gaps DEL746-750/T790M limits assumed): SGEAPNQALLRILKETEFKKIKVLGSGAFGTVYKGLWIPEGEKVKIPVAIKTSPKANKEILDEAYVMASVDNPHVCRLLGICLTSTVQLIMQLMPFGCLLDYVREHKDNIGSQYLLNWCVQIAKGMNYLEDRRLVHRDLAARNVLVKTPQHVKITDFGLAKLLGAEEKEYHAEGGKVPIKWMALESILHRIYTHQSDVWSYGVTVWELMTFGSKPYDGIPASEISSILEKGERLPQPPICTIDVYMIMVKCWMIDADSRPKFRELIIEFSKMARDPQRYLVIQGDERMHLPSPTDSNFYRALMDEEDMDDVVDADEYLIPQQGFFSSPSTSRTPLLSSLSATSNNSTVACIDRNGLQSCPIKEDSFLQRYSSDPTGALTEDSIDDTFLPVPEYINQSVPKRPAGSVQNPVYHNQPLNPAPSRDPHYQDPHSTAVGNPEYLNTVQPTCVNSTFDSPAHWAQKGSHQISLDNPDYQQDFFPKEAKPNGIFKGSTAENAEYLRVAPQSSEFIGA
Chain of EGFR L858R T790M (P00533 25-1210 T790M/L858R): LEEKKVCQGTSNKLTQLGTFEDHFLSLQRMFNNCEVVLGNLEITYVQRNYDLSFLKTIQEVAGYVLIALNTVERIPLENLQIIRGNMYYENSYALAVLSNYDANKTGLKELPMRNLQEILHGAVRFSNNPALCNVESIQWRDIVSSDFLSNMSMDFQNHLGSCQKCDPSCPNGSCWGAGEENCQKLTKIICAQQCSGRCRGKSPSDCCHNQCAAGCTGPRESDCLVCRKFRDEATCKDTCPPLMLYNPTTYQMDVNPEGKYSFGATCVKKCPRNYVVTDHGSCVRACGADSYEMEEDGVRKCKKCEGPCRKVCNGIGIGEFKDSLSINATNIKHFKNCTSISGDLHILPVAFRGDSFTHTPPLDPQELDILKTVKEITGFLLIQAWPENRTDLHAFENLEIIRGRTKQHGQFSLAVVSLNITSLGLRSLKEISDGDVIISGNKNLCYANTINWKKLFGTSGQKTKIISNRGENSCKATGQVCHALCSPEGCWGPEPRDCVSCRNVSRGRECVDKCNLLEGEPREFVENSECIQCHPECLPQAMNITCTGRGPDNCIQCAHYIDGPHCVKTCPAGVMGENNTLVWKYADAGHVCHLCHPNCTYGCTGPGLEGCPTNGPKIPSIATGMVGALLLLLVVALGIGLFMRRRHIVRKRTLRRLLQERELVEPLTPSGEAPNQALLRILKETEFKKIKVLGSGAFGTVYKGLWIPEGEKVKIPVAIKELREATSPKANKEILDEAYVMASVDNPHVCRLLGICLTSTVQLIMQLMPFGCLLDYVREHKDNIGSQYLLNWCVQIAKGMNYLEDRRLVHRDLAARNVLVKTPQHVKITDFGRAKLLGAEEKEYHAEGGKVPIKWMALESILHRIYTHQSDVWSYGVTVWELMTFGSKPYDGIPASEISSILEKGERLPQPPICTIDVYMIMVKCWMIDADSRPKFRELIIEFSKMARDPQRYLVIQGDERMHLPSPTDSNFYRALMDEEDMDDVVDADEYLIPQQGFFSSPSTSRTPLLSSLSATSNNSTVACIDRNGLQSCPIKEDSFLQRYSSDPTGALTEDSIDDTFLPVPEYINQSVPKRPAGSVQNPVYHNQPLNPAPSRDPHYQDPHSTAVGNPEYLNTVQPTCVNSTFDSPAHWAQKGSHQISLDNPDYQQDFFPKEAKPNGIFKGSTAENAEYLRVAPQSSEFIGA

| SMILES | IC50 (EGFR L858R) | IC50 [1] | IC50 (EGFR L858R T790M) | IC50 (EGFR d746-750 T790M) | IC50 (EGFR (L858R T790M C797S)) |
| --- | --- | --- | --- | --- | --- |
| C=CC(=O)N1CCC[C@H]1c1ccc(N2C[C@H](CS(C)(=O)=O)[C@H]2C)c2cnc(Nc3ccnc(N4CC[C@@H](OC)[C@@H](F)C4)n3)cc12 [Example 2, 1-[(2S)-2-[3-({2-[(3S,4R)-3-fluoro-4-methoxypiperidin-1-yl]pyrimidin-4-yl}amino)-8-[(2R,3S)-3-(methanesulfonylmethyl)-2-methylazetidin-1-yl]isoquinolin-5-yl]pyrrolidin-1-yl]prop-2-en-1-one] | 100 nM | 2.3 nM |  |  |  |
| C=CC(=O)N1CCC[C@@H]1c1ccc(N2C[C@H](CS(C)(=O)=O)[C@H]2C)c2cnc(Nc3ccnc(N4CC[C@@H](OC)[C@@H](F)C4)n3)cc12 [Example 3, 1-[(2R)-2-[3-({2-[(3S,4R)-3-fluoro-4-methoxypiperidin-1-yl]pyrimidin-4-yl}amino)-8-[(2R,3S)-3-(methanesulfonylmethyl)-2-methylazetidin-1-yl]isoquinolin-5-yl]pyrrolidin-1-yl]prop-2-en-1-one] | 1.5 nM | 0.15 nM | 0.29 nM | 0.88 nM | 0.69 nM |
